Source: patent US20240093259A1, “METHODS TO STABILIZE MAMMALIAN CELLS” (THE REGENTS OF THE UNIVERSITY OF CALIFORNIA, priority 2019, published 2024)

Tests used:
Type in all cases: cell-based, Chinese hamster
CHO-K1 cells [1] = assay: EJ5-GFP double-strand break (DSB) reporter flow cytometry assay in CHO-K1
From the text: FIGS. 2A-2B show GFP-based double-strand break (DSB) reporter system. […] The spacer prevents the promoter from driving GFP expression. Step 2: Transient transfection with the DSB-inducing plasmid (B) induces two DSBs at the 5′ and 3′ ends of the spacer. Successfully transfected cells are identified through far-red fluorescence from miRFP670, fused to Cas9 (B). Step 3: Transfected cells that repair both DSBs properly keep the spacer in place and thus remain GFP-negative. Transfected cells that fail to repair both DSBs in time produce a large sequence loss, moving the GFP in proximity to the promoter, resulting in GFP expression. Thus, the fraction of GFP-positive cells among all transfected cells (far-red positive) serves as a read-out for the inefficiency of DSB repair. […]
The invention provides a tool to quantify double-strand break (DSB) repair in CHO. […] This reporter system comprises a GFP reading frame, separated from its promoter with a large (2 kb) spacer (FIG. 2A). […] Thus, this tool allows quantitative detection of DSB repair efficiency in living cells and is a powerful read-out for how restoration of individual DSB repair genes improves chromosome stability.
The EJ5-GFP reporter plasmid (addgene #44026) was linearized with XhoI and transfected into CHO-K1 and CHO-SEAP using electroporation (Neon, Thermo Fisher). […] Impaired DSB repair is detected by positive GFP expression. […]

CHO-K1 cells [2] = assay: Karyotype analysis after long-term culture (multi-color FISH chromosome painting); settings: wild-type CHO-K1 cultured under permanent supplementation, 60 passages
Experimental: Metaphase spreads were prepared as previously described. Samples were labeled with multi-color DNA fluorescence in situ hybridization (FISH) probes (12× CHamster mFISH probe kit, MetaSystems) for spectral karyotyping as previously described. For karyotypic analyses, the most abundant karyotype across samples was defined as the representative (“main”) karyotype, and deviations from this karyotype were scored as a numerical alteration (whole-chromosomal aneuploidy) and/or structural alteration (inter-chromosomal rearrangement, visible deletion). Structurally aberrant karyotypes (FIG. 8b) were defined as karyotypes showing at least one structural deviation from the representative karyotype. Since unrepaired DSBs can lead to chromosomal aberrations, as mentioned above, we prepared karyotype samples of wildtype and engineered cell lines to analyze chromosomal aberrations on the single cell level. For this, both ATM+ and ATM+ PRKDC+ cell lines were cultured in parallel to the parental wildtype clone for a total of 60 passages (approx. 120 doublings) after which cells were arrested in mitosis, metaphase chromosomal spreads were prepared and stained with chromosome-specific probes (“chromosome painting”) to detect structural and numerical variations. […]

CHO-SEAP cells = assay: Long-term culture SEAP titer (SEAP reporter assay); settings: CHO-SEAP cells under constant 5 μM MTX supplementation, 48 passages
Experimental: Cells were cultured in triplicates on 6-well plates. All cells were treated with 5 μM methotrexate (MTX) (MilliporeSigma) for 2 weeks at the beginning of the study (P0-P7) after which only one triplicate per genotype was continued under MTX until the rest of the study. Cells were cultured for 48 passages in total, with 3 passages/week. […]. Protein titer was measured at P0, P7, and P48 using a SEAP reporter assay (Applied Biosystems, ThermoFisher).
To finally investigate whether DNA-repair optimization has beneficial effects on transgene expression, we grew CHO-SEAP WT and CHO-SEAP CMV::XRCC6 alongside in a long-term culture experiment, and compared SEAP titer at the beginning and the end. Prior to the start of the experiment, cells were cultured in 5 uM methotrexate (MTX) for 1 week to select for high SEAP expression, after which MTX was taken off the growth medium in half of the samples (FIG. 9c). MTX is a competitive inhibitor of dihydrofolate reductase, an essential metabolic enzyme, which is co-expressed with the transgenic SEAP locus (FIG. 9b).

Compound	fraction of GFP+ cells (inefficiency of DSB repair) (CHO-K1 cells [1]; CHO-K1 carrying GFP reporter, DSB-inducer transfection, ATM inhibitor 3 μM, FACS 24h after transfection)	GFP+ positive cells (compromised DSB repair) (CHO-K1 cells [1]; CHO-K1 wildtype carrying EJ5-GFP, DSB-inducing plasmid, vs DMSO (Example 2, FIG. 5c))	structural abnormalities in karyotype (CHO-K1 cells [2])	SEAP titer at end of long-term culture (CHO-SEAP cells)
C[C@@H]1CN(CC(=O)Nc2ccc3c(c2)Cc2cccc(-c4cc(=O)cc(N5CCOCC5)o4)c2S3)C[C@H](C)O1 [KU-60019]	increases the fraction of GFP+ cells	significant increase in GFP+ positive cells	massive increase in structural abnormalities	–
CN(Cc1cnc2nc(N)nc(N)c2n1)c1ccc(C(=O)N[C@@H](CCC(=O)O)C(=O)O)cc1 [MTX, methotrexate]	–	–	–	no reduction in SEAP titer
